Data reported in PMC6365497, “2-aminoimidazoles collapse mycobacterial proton motive force and block the electron transport chain” (Scientific Reports, 2019).
Converted amounts (≈) assume the structure as drawn. “And” between values parts separate entries of the source, which are not always exact repeats. Identical values can stand only once. “Also recorded” adds a separate entry of the source. Like-named read-outs stand apart in the source and are kept apart here.

Experiments:
M. smegmatis [1] = assay: Kinetic measurement of alamarBlue reduction
[2] = system: M. tuberculosis H37Rv mc^2 6206; type: cell-based, Mycobacterium tuberculosis; details: for NADH/NAD+ ratio: Low (≤ 62.5 µM) 2B8
M. tuberculosis [3] = assay: Quantification of intracellular ATP
[4] = system: M. tuberculosis mc^2 6206; type: cell-based, Mycobacterium tuberculosis; details: for Concentration up to which OCR increased (levelling off): stepwise increments
M. smegmatis [5] = assay: MIC against M. smegmatis; type: cell-based
M. smegmatis IMVs [6] = type: biochemical
M. tuberculosis [7] = assay: β-lactam potentiation assay; type: cell-based, Mycobacterium tuberculosis
M. smegmatis IMVs [8] = assay: NADH oxidation by IMVs; type: biochemical
M. tuberculosis [9] = system: M. tuberculosis; design: method as in PMID 28749949; details: cited from earlier work
M. smegmatis IMVs [10] = assay: ETC activity assay with IMVs (INT reduction); type: biochemical
M. smegmatis IMVs [11] = assay: Determination of ΔpH collapse with IMVs (ACMA); details: for ΔpH collapse: Acute (≤ 2 h)
M. tuberculosis [12] = assay: microbe, parasite or virus in culture; type: cell-based, Mycobacterium tuberculosis
M. smegmatis [13] = assay: Determination of Δψ collapse by DisC3(5); type: cell-based; details: for Δψ collapse: Acute (≤ 2 h)
[14] = system: mycobacterial cell membrane; details: prolonged incubation (24 h); cited from earlier work
M. tuberculosis [15] = assay: Kinetic measurement of alamarBlue reduction; type: cell-based, Mycobacterium tuberculosis
[16] = High (> 62.5 µM) 2B8, Acute (≤ 2 h)
[17] = Low (≤ 62.5 µM) 2B8, Acute (≤ 2 h)
[18] = Low (≤ 62.5 µM) 2B8, Delayed (> 2 h)
[19] = M. tuberculosis, stepwise increasing concentration, media without BSA
[20] = M. tuberculosis, compound at 50% of its MIC, MIC of β-lactam / MIC of β-lactam plus drug

CCCCCCC(CCCCCC)NC(=O)CCCc1cnc(N)[nH]1 [2B8]
alamarBlue reduction (M. smegmatis [1]): inhibited | NADH/NAD^+ ratio [2]: significantly increased; also recorded: persisted | NADH/NAD+ ratio ([2]; Acute (≤ 2 h)): N o effect- ↑ | NADH/NAD+ ratio ([2]; Delayed (> 2 h)): N o effect- ↑ | NADH/NAD+ ratio (summary) ([2]; Table S2 summary): S t r o ng ↑ | [ATP]i (M. tuberculosis [3]; [16]): N o effect | [ATP]i (M. tuberculosis [3]; [17]): N o effect | [ATP]i (M. tuberculosis [3]; [18]): N o effect- ↓ | [ATP]i (summary) (M. tuberculosis [3]; Table S2 summary): S t r o ng ↓ | O2 consumption rate [4, 16]: ↓ to basal | Concentration required to decrease OCR ([4]; M. tuberculosis): ≥ 93 µM | OCR versus basal OCR ([4]; M. tuberculosis, 250 µM 2B8 (highest tested concentration)): no statistical difference | Effect on oxygen consumption rate (OCR) [4, 19]: OCR increased | Concentration up to which OCR increased (levelling off) ([4]; M. tuberculosis): 62.5 µM | O2 consumption rate (summary) ([4]; Table S2 summary): ↑ t he n ↓ | MIC (M. smegmatis [5]; M. smegmatis, +0.5% BSA): 125 to 250 µM | MIC (M. smegmatis [5]; M. smegmatis, No BSA): 62.5 µM (≈ 21.9 µg/mL) | Restoration of inhibited NADH oxidation by CFZ (M. smegmatis IMVs [6]; M. smegmatis IMVs treated with 5 mM KCN, 80 µM TRZ or 125 µM 2B8, 42 µM CFZ added): also restored by CFZ | Rescue by CFZ (summary) (M. smegmatis IMVs [6]; Table S2 summary): Partial | Fold potentiation of Carbenicillin (M. tuberculosis [7]; [20]): 64x | Fold potentiation of Meropenem (M. tuberculosis [7]; [20]): 64x | β-lactam potentiation (summary) (M. tuberculosis [7]; Table S2 summary): S t r o ng ↑ | Effect on NADH oxidation (fluorescence decay 340ex/460em) (M. smegmatis IMVs [8]): significantly inhibited | NADH oxidation (M. smegmatis IMVs [8]; [17]): N o effect | Concentration at which NADH oxidation is significantly inhibited (M. smegmatis IMVs [8]; M. smegmatis IMVs): greater than 62.5 µM | NADH oxidation (summary) (M. smegmatis IMVs [8]; Table S2 summary): S t r o ng ↓ | MIC (MIC95) (M. tuberculosis [9]): 250 µM | ETC activity (INT reduction at 490 nm) (M. smegmatis IMVs [10]): potently inhibited | ETC activity (M. smegmatis IMVs [10]; [17]): N o effect | Concentration with inhibitory effect on the ETC (M. smegmatis IMVs [10]; M. smegmatis IMVs): ≥ 78 µM | ETC activity (summary) (M. smegmatis IMVs [10]; Table S2 summary): S t r o ng ↓ | Effect on ΔpH, ACMA fluorescence reversal (M. smegmatis IMVs [11]): collapsed the ΔpH | ΔpH collapse (M. smegmatis IMVs [11]; High (> 62.5 µM) 2B8): S t r o ng | ΔpH collapse (M. smegmatis IMVs [11]; Low (≤ 62.5 µM) 2B8): Low- Strong | ΔpH collapse (summary) (M. smegmatis IMVs [11]; Table S2 summary): S t r o ng | MIC (M. tuberculosis [12]): 250 to 500 µM and 250 µM | Effect on Δψ (membrane potential), DiSC3(5) fluorescence reversal (M. smegmatis [13]): rapidly depolarized the membrane potential | Δψ collapse (M. smegmatis [13]; High (> 62.5 µM) 2B8): S t r o ng | Δψ collapse (M. smegmatis [13]; Low (≤ 62.5 µM) 2B8): S t r o ng | Δψ collapse (summary) (M. smegmatis [13]; Table S2 summary): S t r o ng | Concentration causing catastrophic cell membrane disruption [14]: ≥ 125 µM | alamarBlue reduction (M. tuberculosis [15]): inhibited | alamarBlue reduction (M. tuberculosis [15]; [18]): N o effect | alamarBlue reduction (M. tuberculosis [15]; M. tuberculosis, 2B8 62.5 µM): not | alamarBlue reduction (summary) (M. tuberculosis [15]; Table S2 summary, mycobacteria): S t r o ng ↓

COc1nc2ccc(Br)cc2cc1[C@@H](c1ccccc1)[C@@](O)(CCN(C)C)c1cccc2ccccc12 [BDQ, bedaquiline, reference compound]
NADH/NAD^+ ratio [2]: increased | NADH/NAD+ ratio (summary) ([2]; Table S2 summary): Intermediate ↑ | [ATP]i (summary) (M. tuberculosis [3]; Table S2 summary): S t r o ng ↓ | Effect on oxygen consumption rate (OCR) [4, 19]: significantly increased M. tuberculosis OCR | Concentration up to which OCR increased (levelling off) ([4]; M. tuberculosis): 9 µM | Fold potentiation of Carbenicillin (M. tuberculosis [7]; [20]): 4x | Fold potentiation of Meropenem (M. tuberculosis [7]; [20]): 4x | β-lactam potentiation (summary) (M. tuberculosis [7]; Table S2 summary): Weak ↑ | Effect on NADH oxidation (fluorescence decay 340ex/460em) (M. smegmatis IMVs [8]): inhibited | NADH oxidation (summary) (M. smegmatis IMVs [8]; Table S2 summary): Intermediate ↓ | ETC activity (summary) (M. smegmatis IMVs [10]; Table S2 summary): N o effect | ΔpH collapse (summary) (M. smegmatis IMVs [11]; Table S2 summary): Intermediate | MIC (M. tuberculosis [12]; Mycobacterium tuberculosis, M. tuberculosis, read-out: MIC (MIC95)): 0.125 µM (≈ 0.0694 µg/mL) | Δψ collapse (summary) (M. smegmatis [13]; Table S2 summary): N o effect | alamarBlue reduction (summary) (M. tuberculosis [15]; Table S2 summary, mycobacteria): N o effect

CC1(C)S[C@@H]2[C@H](NC(=O)C(C(=O)O)c3ccccc3)C(=O)N2[C@H]1C(=O)O (stereo partly shown) [Carbenicillin]
MIC (MIC95) (M. tuberculosis [9]): 1000 µg/mL

C[C@@H](O)[C@H]1C(=O)N2C(C(=O)O)=C(S[C@@H]3CN[C@H](C(=O)N(C)C)C3)[C@H](C)[C@H]12 [Meropenem]
MIC (MIC95) (M. tuberculosis [9]): 8 µg/mL

CCCCCCCCCCCCCNC(=O)CCCc1cnc(N)[nH]1 [RA13]
alamarBlue reduction (M. smegmatis [1]): did not have an effect | NADH/NAD+ ratio (summary) [2]: N o effect | NADH/NAD^+ ratio [2]: inactive | [ATP]i (summary) (M. tuberculosis [3]): N o effect | Effect on oxygen consumption rate (OCR) [4]: minimal changes in OCR | O2 consumption rate (summary) [4]: Weak ↑ | MIC (M. smegmatis [5]): > 1000 µM | Fold potentiation of Carbenicillin (M. tuberculosis [7]): 1.5x | Fold potentiation of Meropenem (M. tuberculosis [7]): 2x | β-lactam potentiation (summary) (M. tuberculosis [7]): M a r g in a l ↑ | Effect on NADH oxidation (fluorescence decay 340ex/460em) (M. smegmatis IMVs [8]): did not have any effect | NADH oxidation (summary) (M. smegmatis IMVs [8]): N o effect | ETC activity (INT reduction at 490 nm) (M. smegmatis IMVs [10]): only affected INT reduction in the presence of both substrates | ETC activity (summary) (M. smegmatis IMVs [10]): Weak ↓ | ΔpH collapse (summary) (M. smegmatis IMVs [11]): Weak | MIC (M. tuberculosis [12]): > 1000 µM | Effect on Δψ (membrane potential), DiSC3(5) fluorescence reversal (M. smegmatis [13]): no effect | Δψ collapse (summary) (M. smegmatis [13]): N o effect | alamarBlue reduction (M. tuberculosis [15]): did not have an effect | alamarBlue reduction (summary) (M. tuberculosis [15]): N o effect

CSc1ccc2c(c1)N(CCC1CCCCN1C)c1ccccc1S2 (stereo not shown) [TRZ, thioridazine, reference compound]
NADH/NAD+ ratio (summary) [2]: S t r o ng ↑ | NADH/NAD^+ ratio [2]: increased | [ATP]i (summary) (M. tuberculosis [3]; Table S2 summary): S t r o ng ↓ | Effect on oxygen consumption rate (OCR) [4]: significantly increased M. tuberculosis OCR | Restoration of inhibited NADH oxidation by CFZ (M. smegmatis IMVs [6]): not altered by CFZ | Rescue by CFZ (summary) (M. smegmatis IMVs [6]; Table S2 summary): No | Fold potentiation of Carbenicillin (M. tuberculosis [7]): 16x | Fold potentiation of Meropenem (M. tuberculosis [7]): 32x | β-lactam potentiation (summary) (M. tuberculosis [7]; Table S2 summary): Intermediate ↑ | Effect on NADH oxidation (fluorescence decay 340ex/460em) (M. smegmatis IMVs [8]): significantly slowed down | NADH oxidation (summary) (M. smegmatis IMVs [8]; Table S2 summary): S t r o ng ↓ | ETC activity (INT reduction at 490 nm) (M. smegmatis IMVs [10]): none and potent and intermediate | ETC activity (summary) (M. smegmatis IMVs [10]; Table S2 summary): S t r o ng ↓ | ΔpH collapse (summary) (M. smegmatis IMVs [11]; Table S2 summary): S t r o ng | MIC (M. tuberculosis [12]; Mycobacterium tuberculosis, read-out: MIC (MIC95)): 62.5 µM (≈ 23.2 µg/mL) | Δψ collapse (summary) (M. smegmatis [13]; Table S2 summary): Intermediate | alamarBlue reduction (summary) (M. tuberculosis [15]; Table S2 summary, mycobacteria): S t r o ng ↓

carbonyl cyanide m-chlorophenyl hydrazine [CCCP, reference compound]
alamarBlue reduction (M. smegmatis [1]): inhibited | NADH/NAD+ ratio (summary) [2]: N o effect | NADH/NAD^+ ratio [2]: did not increase | [ATP]i (summary) (M. tuberculosis [3]): Intermediate ↓ | Effect on oxygen consumption rate (OCR) [4]: bell-shaped, dose-response effect | O2 consumption rate (summary) [4]: ↑ t he n ↓ | Rescue by CFZ (summary) (M. smegmatis IMVs [6]): N o effect | Fold potentiation of Carbenicillin (M. tuberculosis [7]): 9.6x | Fold potentiation of Meropenem (M. tuberculosis [7]): 16x | β-lactam potentiation (summary) (M. tuberculosis [7]): Intermediate ↑ | Effect on NADH oxidation (fluorescence decay 340ex/460em) (M. smegmatis IMVs [8]): tendency to accelerate NADH oxidation | NADH oxidation (summary) (M. smegmatis IMVs [8]): Weak ↑ | ETC activity (INT reduction at 490 nm) (M. smegmatis IMVs [10]): tendency to increase ETC activity | ETC activity (summary) (M. smegmatis IMVs [10]): Weak ↑ | ΔpH collapse (summary) (M. smegmatis IMVs [11]): Intermediate | MIC (M. tuberculosis [12]; read-out: MIC (MIC95)): 20 µM | Δψ collapse (summary) (M. smegmatis [13]): S t r o ng | alamarBlue reduction (M. tuberculosis [15]): inhibited | alamarBlue reduction (summary) (M. tuberculosis [15]): Weak ↓
